Experimental data reported in the supplement of paper PMC12463676, “Small-molecule dissolution of stress granules by redox modulation benefits ALS models” (Nature Chemical Biology, 2025).

Assays:
potassium arsenate = compound: O=[As]([O-])(O)O.[K+] [potassium arsenate]; assay: thermal stability z-score vs DMSO; higher = more thermally stabilized by treatment; settings: HeLa; arsenate concentration 1 mM
Experimental: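 Cellular thermal proteome profiling in HeLa cells treated with 1 mM arsenate for 1 h (DMSO pretreatment), heated to ten temperatures (37-66.3 °C). Soluble protein was quantified by TMT mass spectrometry relative to DMSO controls; the thermal stability score was transformed to a z-score; mean of n = 3 experiments.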

lipoamide = compound: NC(=O)CCCCC1CCSS1 [lipoamide]; assay: as above; settings: HeLa, lipoamide concentration 100 µM
Experimental: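 Cellular thermal proteome profiling in HeLa cells. Cells were treated with 100 µM lipoamide for 1 h, with or without 1 mM arsenate for a further 1 h, then heated to ten temperatures (37-66.3 °C), and soluble protein was quantified by TMT mass spectrometry relative to 0.1% DMSO controls. The thermal stability score (sum of log2 fold changes minus the abundance score) was transformed to a z-score; mean of n = 3 experiments.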

[1] = arsenate co-treatment: 1 mM arsenate 1 h
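Also: each temperature applied for 3 min, abundance score taken as mean log2 fold change at the two lowest temperatures, z-score obtained by mean subtraction and division by SD.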

UniProt P49327, sequence (P49327 whole entry, looked up): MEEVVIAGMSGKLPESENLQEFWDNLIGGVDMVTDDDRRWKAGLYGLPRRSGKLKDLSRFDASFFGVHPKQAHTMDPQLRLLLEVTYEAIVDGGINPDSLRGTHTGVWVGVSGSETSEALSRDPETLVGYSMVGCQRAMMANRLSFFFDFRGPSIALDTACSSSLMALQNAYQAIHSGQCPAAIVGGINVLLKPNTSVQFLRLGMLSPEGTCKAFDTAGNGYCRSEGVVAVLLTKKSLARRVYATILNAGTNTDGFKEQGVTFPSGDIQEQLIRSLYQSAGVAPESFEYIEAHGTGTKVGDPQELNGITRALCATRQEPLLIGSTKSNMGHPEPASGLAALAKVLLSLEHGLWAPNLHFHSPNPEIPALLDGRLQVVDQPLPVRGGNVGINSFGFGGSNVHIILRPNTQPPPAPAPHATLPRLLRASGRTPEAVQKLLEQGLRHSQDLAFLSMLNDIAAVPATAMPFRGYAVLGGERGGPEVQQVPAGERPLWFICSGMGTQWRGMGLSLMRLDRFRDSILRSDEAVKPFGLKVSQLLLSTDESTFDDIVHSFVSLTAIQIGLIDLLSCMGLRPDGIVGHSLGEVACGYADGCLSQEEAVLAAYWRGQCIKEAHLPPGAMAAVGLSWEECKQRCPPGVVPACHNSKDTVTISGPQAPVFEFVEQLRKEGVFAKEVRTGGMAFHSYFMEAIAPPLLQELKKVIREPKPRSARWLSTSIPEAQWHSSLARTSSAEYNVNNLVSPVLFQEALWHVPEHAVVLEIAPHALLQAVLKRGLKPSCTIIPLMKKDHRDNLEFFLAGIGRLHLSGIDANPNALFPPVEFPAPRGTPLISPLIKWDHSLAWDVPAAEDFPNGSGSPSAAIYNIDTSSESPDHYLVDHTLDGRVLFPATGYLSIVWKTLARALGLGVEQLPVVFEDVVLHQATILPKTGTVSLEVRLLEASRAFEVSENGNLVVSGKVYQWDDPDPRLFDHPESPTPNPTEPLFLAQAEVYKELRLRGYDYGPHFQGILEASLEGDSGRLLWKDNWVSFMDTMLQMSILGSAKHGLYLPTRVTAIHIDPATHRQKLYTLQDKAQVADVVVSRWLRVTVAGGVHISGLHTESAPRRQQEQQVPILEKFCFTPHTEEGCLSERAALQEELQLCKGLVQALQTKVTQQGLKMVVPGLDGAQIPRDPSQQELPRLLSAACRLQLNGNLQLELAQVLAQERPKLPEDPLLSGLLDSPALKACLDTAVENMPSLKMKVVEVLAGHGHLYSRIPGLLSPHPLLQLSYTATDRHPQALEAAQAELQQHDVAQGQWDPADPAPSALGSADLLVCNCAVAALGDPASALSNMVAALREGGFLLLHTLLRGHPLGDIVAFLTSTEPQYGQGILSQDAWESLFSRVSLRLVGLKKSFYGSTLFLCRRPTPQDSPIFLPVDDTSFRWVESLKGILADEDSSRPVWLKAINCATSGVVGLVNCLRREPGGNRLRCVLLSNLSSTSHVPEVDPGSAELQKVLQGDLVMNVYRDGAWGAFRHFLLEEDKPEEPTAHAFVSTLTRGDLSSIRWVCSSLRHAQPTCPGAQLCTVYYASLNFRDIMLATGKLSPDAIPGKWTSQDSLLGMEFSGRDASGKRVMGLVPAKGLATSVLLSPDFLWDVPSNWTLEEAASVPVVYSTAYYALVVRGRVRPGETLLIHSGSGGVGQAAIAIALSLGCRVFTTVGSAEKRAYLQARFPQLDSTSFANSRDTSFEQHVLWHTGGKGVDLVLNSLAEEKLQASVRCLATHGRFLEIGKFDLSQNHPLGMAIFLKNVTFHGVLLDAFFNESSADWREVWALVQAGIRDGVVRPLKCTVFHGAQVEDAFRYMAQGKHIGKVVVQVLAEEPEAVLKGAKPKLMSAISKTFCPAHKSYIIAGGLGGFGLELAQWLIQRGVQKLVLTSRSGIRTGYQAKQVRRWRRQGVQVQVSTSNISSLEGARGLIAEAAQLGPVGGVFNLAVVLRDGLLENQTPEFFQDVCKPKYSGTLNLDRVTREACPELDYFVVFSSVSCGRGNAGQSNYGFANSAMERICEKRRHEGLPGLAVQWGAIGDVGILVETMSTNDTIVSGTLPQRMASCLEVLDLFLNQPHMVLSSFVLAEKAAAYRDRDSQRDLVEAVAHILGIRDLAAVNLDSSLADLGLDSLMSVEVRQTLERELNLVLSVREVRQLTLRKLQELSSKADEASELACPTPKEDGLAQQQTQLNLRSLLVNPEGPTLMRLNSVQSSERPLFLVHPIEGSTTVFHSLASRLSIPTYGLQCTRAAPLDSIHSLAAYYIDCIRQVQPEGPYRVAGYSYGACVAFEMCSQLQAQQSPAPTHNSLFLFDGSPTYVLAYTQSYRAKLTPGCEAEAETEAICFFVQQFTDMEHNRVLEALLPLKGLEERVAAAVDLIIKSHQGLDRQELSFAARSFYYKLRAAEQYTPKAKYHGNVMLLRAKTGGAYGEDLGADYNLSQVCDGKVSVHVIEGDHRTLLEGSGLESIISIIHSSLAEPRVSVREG
UniProt Q9H0X4, sequence (Q9H0X4 whole entry): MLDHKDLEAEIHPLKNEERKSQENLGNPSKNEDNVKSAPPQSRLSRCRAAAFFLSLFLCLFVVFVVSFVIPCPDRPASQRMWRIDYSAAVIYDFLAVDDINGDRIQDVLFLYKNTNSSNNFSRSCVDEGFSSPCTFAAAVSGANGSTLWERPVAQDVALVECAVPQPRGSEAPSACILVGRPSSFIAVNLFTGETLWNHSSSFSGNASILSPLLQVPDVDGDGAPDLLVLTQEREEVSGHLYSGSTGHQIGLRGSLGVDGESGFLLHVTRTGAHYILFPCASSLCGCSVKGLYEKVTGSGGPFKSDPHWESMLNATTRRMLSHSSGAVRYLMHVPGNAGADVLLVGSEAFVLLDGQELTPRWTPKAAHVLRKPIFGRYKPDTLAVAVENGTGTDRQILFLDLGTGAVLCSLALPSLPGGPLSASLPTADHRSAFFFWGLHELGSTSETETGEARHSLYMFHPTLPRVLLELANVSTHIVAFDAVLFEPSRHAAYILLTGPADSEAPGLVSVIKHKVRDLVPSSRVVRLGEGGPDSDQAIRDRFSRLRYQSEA
UniProt Q8TBP5, sequence (Q8TBP5 whole entry): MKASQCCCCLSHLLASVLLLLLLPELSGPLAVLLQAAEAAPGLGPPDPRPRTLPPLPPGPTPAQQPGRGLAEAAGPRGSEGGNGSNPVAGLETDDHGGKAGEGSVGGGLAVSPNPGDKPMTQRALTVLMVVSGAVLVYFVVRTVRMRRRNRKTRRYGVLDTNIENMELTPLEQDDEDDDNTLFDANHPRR
UniProt Q9Y4F1, sequence (Q9Y4F1 whole entry): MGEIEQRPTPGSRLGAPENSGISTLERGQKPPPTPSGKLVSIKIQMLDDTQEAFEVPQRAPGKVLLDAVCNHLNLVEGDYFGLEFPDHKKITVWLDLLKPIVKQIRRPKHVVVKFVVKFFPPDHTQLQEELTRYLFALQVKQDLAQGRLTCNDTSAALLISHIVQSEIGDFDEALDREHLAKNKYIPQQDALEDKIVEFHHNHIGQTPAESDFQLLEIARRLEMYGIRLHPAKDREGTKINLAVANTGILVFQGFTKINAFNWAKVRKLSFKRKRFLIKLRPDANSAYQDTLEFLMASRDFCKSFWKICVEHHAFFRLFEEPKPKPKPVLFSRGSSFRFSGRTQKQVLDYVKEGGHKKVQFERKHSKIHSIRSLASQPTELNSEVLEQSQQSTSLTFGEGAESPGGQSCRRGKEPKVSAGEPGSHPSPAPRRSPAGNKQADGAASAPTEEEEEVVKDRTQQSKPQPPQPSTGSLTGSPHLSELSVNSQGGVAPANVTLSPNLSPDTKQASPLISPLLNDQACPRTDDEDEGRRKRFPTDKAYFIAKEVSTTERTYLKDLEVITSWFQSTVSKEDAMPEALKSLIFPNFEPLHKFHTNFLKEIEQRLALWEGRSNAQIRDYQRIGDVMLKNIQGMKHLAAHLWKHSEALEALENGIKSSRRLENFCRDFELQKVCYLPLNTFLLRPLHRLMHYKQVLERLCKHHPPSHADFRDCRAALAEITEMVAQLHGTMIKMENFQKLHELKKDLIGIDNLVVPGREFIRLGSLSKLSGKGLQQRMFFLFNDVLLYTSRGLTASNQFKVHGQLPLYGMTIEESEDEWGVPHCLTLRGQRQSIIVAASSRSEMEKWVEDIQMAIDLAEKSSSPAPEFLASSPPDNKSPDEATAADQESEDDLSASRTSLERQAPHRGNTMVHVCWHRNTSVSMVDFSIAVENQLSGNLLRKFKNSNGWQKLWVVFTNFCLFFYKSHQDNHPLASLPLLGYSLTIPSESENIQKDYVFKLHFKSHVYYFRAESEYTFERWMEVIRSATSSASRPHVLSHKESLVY
UniProt P22087, sequence (P22087 whole entry): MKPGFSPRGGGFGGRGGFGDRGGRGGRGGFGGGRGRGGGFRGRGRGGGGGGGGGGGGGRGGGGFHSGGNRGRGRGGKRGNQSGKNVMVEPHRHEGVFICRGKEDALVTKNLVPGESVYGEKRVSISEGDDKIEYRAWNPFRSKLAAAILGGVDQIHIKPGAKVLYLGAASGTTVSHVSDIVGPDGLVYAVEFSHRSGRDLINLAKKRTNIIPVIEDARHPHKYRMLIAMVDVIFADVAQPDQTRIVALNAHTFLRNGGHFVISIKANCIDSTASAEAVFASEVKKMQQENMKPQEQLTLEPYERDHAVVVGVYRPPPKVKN
UniProt P25445, sequence (P25445 whole entry): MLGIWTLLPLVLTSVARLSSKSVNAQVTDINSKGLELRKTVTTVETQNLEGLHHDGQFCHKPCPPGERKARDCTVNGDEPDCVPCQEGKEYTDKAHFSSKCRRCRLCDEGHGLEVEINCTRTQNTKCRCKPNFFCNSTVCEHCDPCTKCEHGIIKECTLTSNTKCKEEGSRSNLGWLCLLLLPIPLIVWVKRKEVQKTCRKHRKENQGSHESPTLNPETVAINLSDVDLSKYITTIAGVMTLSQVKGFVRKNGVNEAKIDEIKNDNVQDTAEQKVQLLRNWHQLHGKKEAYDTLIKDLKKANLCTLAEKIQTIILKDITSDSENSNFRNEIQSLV

| Target | thermal stability z-score (potassium arsenate) | thermal stability z-score (lipoamide; [1]) | thermal stability z-score (lipoamide; arsenate co-treatment: none) |
| --- | --- | --- | --- |
| FAM173B (UniProt Q6P4H8) | -0.0461 | -0.478 | 1.31 |
| FAM174A (UniProt Q8TBP5) | 1.14 | 0.351 | 0.647 |
| FAM175B (UniProt Q15018) | -0.57 | 0.515 | 0.293 |
| FAM177A1 (UniProt Q8N128) | 1.04 | -0.313 | -0.584 |
| FAM188A (UniProt Q9H8M7) | 1.07 | 0.53 | 0.885 |
| FAM192A (UniProt Q9GZU8) | -0.58 | -0.00729 | 0.455 |
| FAM195A (UniProt Q9BUT9) | -0.164 | 0.00727 | 0.202 |
| FAM206A (UniProt Q9NX38) | 0.249 | -0.0394 | -0.233 |
| FAM207A (UniProt Q9NSI2) | 0.566 | 0.062 | 0.578 |
| FAM210A (UniProt Q96ND0) | -0.189 | -0.412 | -0.508 |
| FAM213A (UniProt Q9BRX8) | -0.29 | -0.192 | -0.476 |
| FAM219A (UniProt Q8IW50) | -9.1 | -1.69 | 2.4 |
| FAM234A (UniProt Q9H0X4) | -0.743 | -0.353 | -0.499 |
| FAM234B (UniProt A2RU67) | -0.192 | -0.257 | -0.241 |
| FANCA (UniProt O15360) | -0.103 | -0.0907 | -0.00129 |
| FANCB (UniProt Q8NB91) | -1.04 | -0.147 | -0.547 |
| FANCD2 (UniProt Q9BXW9) | -0.953 | -0.812 | -0.0726 |
| FANCG (UniProt O15287) | -0.507 | -0.348 | -0.437 |

| Target | thermal stability z-score (potassium arsenate) | thermal stability z-score (lipoamide; [1]) | thermal stability z-score (lipoamide; arsenate co-treatment: none) |
| --- | --- | --- | --- |
| FANCI (UniProt Q9NVI1) | -1.2 | -0.722 | -0.439 |
| FAR1 (UniProt Q8WVX9) | 0.544 | -0.177 | -0.0751 |
| FARP1 (UniProt Q9Y4F1) | -2.23 | -0.118 | -1.38 |
| FARP2 (UniProt O94887) | -0.235 | -0.32 | -0.266 |
| FARS2 (UniProt O95363) | -0.701 | -0.386 | -0.359 |
| FARSA (UniProt Q9Y285) | 0.0543 | -1.41 | -0.546 |
| FARSB (UniProt Q9NSD9) | 0.893 | 0.262 | -0.0911 |
| FAS (UniProt P25445) | 0.539 | 0.392 | 0.673 |
| FASN (UniProt P49327) | -1.1 | 0.217 | 0.252 |
| FASTKD1 (UniProt Q53R41) | -0.324 | -0.195 | -0.378 |
| FASTKD2 (UniProt Q9NYY8) | 0.445 | -0.22 | 0.158 |
| FASTKD3 (UniProt Q14CZ7) | -0.00397 | -0.0188 | -0.107 |
| FASTKD5 (UniProt Q7L8L6) | 0.437 | -1.07 | 0.633 |
| FAT1 (UniProt Q14517) | 0.0899 | -1.6 | -1.48 |
| FAU (UniProt P62861) | 1.15 | 1.7 | 1.21 |
| FBL (UniProt P22087) | 0.723 | 0.277 | -0.112 |
| FBLN1 (UniProt P23142) | 1.29 | -2.93 | -2.25 |
